Patent US6514997B2, “Antipicornaviral compounds and compositions, their pharmaceutical uses, and materials for their synthesis” (Agouron Pharmaceuticals, Inc., priority 1999, dated 2003)
Like-named read-outs stand apart in the source and are kept apart here.

Assays:
[1] = Cytotoxicity (CC50) in mock-infected H1-HeLa cells, XTT dye reduction; type: cell-based, human; conditions: human; for CC50 at 1 day: CVB3
Summary of the method: (§1)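 H1-HeLa cells mock-infected, read by XTT/PMS formazan at 450/650 nm.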

H1-HeLa cells = experiment: as above; type: cell-based, human
Summary of the method: as §1

[2] = system: strains of human rhinovirus (HRV); experiment: Antirhinoviral H1-HeLa cell culture assay (XTT cell protection, EC50), other HRV strains; type: cell-based, human rhinovirus in H1-HeLa cells; conditions: read-out: EC50
Summary of the method: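 H1-HeLa cells infected, or mock-infected, were incubated with compounds for two days. Cell protection measured by XTT/PMS formazan absorbance at 450/650 nm; TI taken as CC50 divided by EC50.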

[3] = system: Coxsackievirus type B3 (CVB3); experiment: Anticoxsackieviral cell culture assay (XTT, EC50), CVB3; type: cell-based, coxsackievirus B3 in H1-HeLa cells; conditions: H1-HeLa
Protocol: (§2) Anticoxsackieviral Cell Culture Assay:
(§3) Coxsackievirus types A-21 (CAV-21) and B3 (CVB3) were purchased from American Type Culture Collection (ATCC, Rockville, Md.). Virus stocks were propagated and antiviral assays were performed in H1-HeLa cells (ATCC). Cells were grown in minimal essential medium with 10% fetal bovine serum (Life Technologies, Gaithersburg, Md.). The ability of the compounds of this invention to protect cells against either CAV-21 or CVB3 infection was measured by the XTT dye reduction method. This method is described in Weislow et al., J. Natl. Cancer Inst. (1989), vol. 81, 577-586. H1-HeLa cells were infected with CAV-21 or CVB3 at a multiplicity of infection (m.o.i.) of 0.025 or 0.075, respectively, or mock-infected with medium only. H1-HeLa cells were plated at 4×10^4 cells per well in a 96-well plate and incubated with appropriate concentrations of the test compound. One day (CVB3) or two days (CAV-21) later, XTT/PMS was added to test plates and the amount of formazan produced was quantified spectrophotometrically at 450/650 nm. […] The therapeutic index (TI) was calculated by dividing the CC50 by the EC50.

[4] = system: Coxsackievirus type A-21 (CAV-21); experiment: Anticoxsackieviral cell culture assay (XTT, EC50), CAV-21; type: cell-based, coxsackievirus A-21 in H1-HeLa cells; conditions: Coxsackievirus, H1-HeLa
Protocol: as §2, §3

HRV-14 = experiment: Antirhinoviral H1-HeLa cell culture assay (XTT cell protection, EC50), HRV-14; type: cell-based, human rhinovirus (HRV) serotype-14 in H1-HeLa cells; conditions: Rhinovirus B, HRV14, H1-HeLa
Summary of the method: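 H1-HeLa cells were infected with HRV-14 at m.o.i. 0.13, or mock-infected, and incubated with compound for two days. Cell protection was read by XTT/PMS formazan absorbance at 450/650 nm to give EC50. CC50 came from mock-infected cells, and TI = CC50/EC50.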

[5] = H1-HeLa cells, mock-infected, HRV-14
[6] = mock-infected (uninfected) H1-HeLa cells, CAV-21
[7] = mock-infected (uninfected) H1-HeLa cells
[8] = Human rhinovirus sp., H1-HeLa, HRV-Hanks
[9] = Human rhinovirus sp., HRV3, H1-HeLa, HRV-3
[10] = Human rhinovirus sp., HRV9, H1-HeLa, HRV-9
[11] = Human rhinovirus sp., HRV10, H1-HeLa, HRV-10
[12] = Human rhinovirus sp., HRV11, H1-HeLa, HRV-11
[13] = Human rhinovirus sp., HRV13, H1-HeLa, HRV-13
[14] = Human rhinovirus sp., HRV16, H1-HeLa, HRV-16
[15] = Human rhinovirus sp., HRV19, H1-HeLa, HRV-19
[16] = Human rhinovirus sp., HRV25, H1-HeLa, HRV-25
[17] = Human rhinovirus sp., HRV39, H1-HeLa, HRV-39
[18] = Human rhinovirus sp., HRV78, H1-HeLa, HRV-78

CC[C@@H](C(=O)N[C@H](/C=C/C(=O)OCc1ccccc1)C[C@@H]1CCNC1=O)n1cccc(NC(=O)c2cc(C)on2)c1=O [Compound 62, trans-(2′S,3′″″S,4S)-4-[2′-(3″-{[1′″-(5″″-Methylisoxazol-3″″-yl)methanoyl]amino}-2′″oxo-2′″H-pyridin-1′″-yl)butanoylamino]-5-(2′″″-oxopyrrolidin-3′″″-yl)pent-2-enoic Acid Benzyl Ester]
CC50 at 2 days [1, 5]: > 10000 nM
CC50 at 2 days [1, 6]: > 10000 nM
CC50 at 1 day [1, 7]: > 10000 nM
CC50 (H1-HeLa cells; HRV-1A): > 10000 nM
CC50 (H1-HeLa cells; HRV-2): > 10000 nM
CC50 (H1-HeLa cells; HRV-3): > 10000 nM
CC50 (H1-HeLa cells; HRV-9): > 10000 nM
CC50 (H1-HeLa cells; HRV-10): > 10000 nM
CC50 (H1-HeLa cells; HRV-11): > 10000 nM
CC50 (H1-HeLa cells; HRV-13): > 10000 nM
CC50 (H1-HeLa cells; HRV-16): > 10000 nM
CC50 (H1-HeLa cells; HRV-19): > 10000 nM
CC50 (H1-HeLa cells; HRV-23): > 10000 nM
CC50 (H1-HeLa cells; HRV-25): > 10000 nM
CC50 (H1-HeLa cells; HRV-39): > 10000 nM
CC50 (H1-HeLa cells; HRV-78): > 10000 nM
CC50 (H1-HeLa cells; HRV-Hanks): > 10000 nM
EC50 ([2]; H1-HeLa, HRV-1A): 17 nM
EC50 ([2]; H1-HeLa, HRV-2): 45 nM
EC50 ([2]; H1-HeLa, HRV-23): 32 nM
EC50 [2, 8]: 52 nM
EC50 [2, 9]: 52 nM
EC50 [2, 10]: 130 nM
EC50 [2, 11]: 52 nM
EC50 [2, 12]: 10 nM
EC50 [2, 13]: 4 nM
EC50 [2, 14]: 53 nM
EC50 [2, 15]: 21 nM
EC50 [2, 16]: 18 nM
EC50 [2, 17]: 43 nM
EC50 [2, 18]: 57 nM
EC50 [3]: 15 nM
EC50 [4]: 298 nM
EC50 (HRV-14): 61 nM

C#CC[C@@H](C(=O)N[C@H](/C=C/C(=O)OCc1ccccc1)C[C@@H]1CCNC1=O)n1cccc(NC(=O)c2cc(C)on2)c1=O [Compound 63, trans-(2′S,3′″″S,4S)-4-[2′-(3″-{[1′″-(5″″-Methylisoxazol-3″″-yl)methanoyl]amino}-2′″-oxo-2′″H-pyridin-1′″-yl)pent-4″-ynoylamino]-5-(2′″″-oxopyrrolidin-3′″″-yl)pent-2-enoic Acid Benzyl Ester]
CC50 at 2 days [1, 5]: > 10000 nM
CC50 at 2 days [1, 6]: > 10000 nM
CC50 at 1 day [1, 7]: > 10000 nM
CC50 (H1-HeLa cells; HRV-1A): > 10000 nM
CC50 (H1-HeLa cells; HRV-2): > 10000 nM
CC50 (H1-HeLa cells; HRV-3): > 10000 nM
CC50 (H1-HeLa cells; HRV-9): > 10000 nM
CC50 (H1-HeLa cells; HRV-10): > 10000 nM
CC50 (H1-HeLa cells; HRV-11): > 10000 nM
CC50 (H1-HeLa cells; HRV-13): > 10000 nM
CC50 (H1-HeLa cells; HRV-16): > 10000 nM
CC50 (H1-HeLa cells; HRV-19): > 10000 nM
CC50 (H1-HeLa cells; HRV-23): > 10000 nM
CC50 (H1-HeLa cells; HRV-25): > 10000 nM
CC50 (H1-HeLa cells; HRV-39): > 10000 nM
CC50 (H1-HeLa cells; HRV-78): > 10000 nM
CC50 (H1-HeLa cells; HRV-Hanks): > 10000 nM
EC50 ([2]; H1-HeLa, HRV-1A): 12 nM
EC50 ([2]; H1-HeLa, HRV-2): 24 nM
EC50 ([2]; H1-HeLa, HRV-23): 37 nM
EC50 [2, 8]: 400 nM
EC50 [2, 9]: 27 nM
EC50 [2, 10]: 65 nM
EC50 [2, 11]: 46 nM
EC50 [2, 12]: 17 nM
EC50 [2, 13]: 45 nM
EC50 [2, 14]: 46 nM
EC50 [2, 15]: 14 nM
EC50 [2, 16]: 7 nM
EC50 [2, 17]: 35 nM
EC50 [2, 18]: 34 nM
EC50 [3]: 14 nM
EC50 [4]: 153 nM
EC50 (HRV-14): 51 nM
